Results reported in US20020165133A1 (priority 2001, published 2002).
Entries after “also recorded” stand apart in the source; their conditions may differ.

Test system: C57BL/6 mice
Assay: Test of hair regrowth effects on the shaved backs of C57BL/6 mice
Type: in vivo
Settings: C57BL/6 mice (female), applied over hair removed area once a day for 30 days, 100 μl (0.05% w/v)
From the text: C57BL/6 mice (female), 42˜49 days old, were used in this test.
The mice were removed of hair on their backs using an electric shaver, and weighed. The mice were divided into several groups with weights equally distributed. […] The degree of hair growth were judged by naked eye and the back sides of the mice were photographed.

## [Leu^4]cyclosporin A [M21]
  hair growth effect (degree of hair growth judged by naked eye): no significant effect; also recorded: no hair growth effect
